Assay results published in ChEMBL document CHEMBL1201862, “PubChem BioAssay data set” (2004).
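Exposure lasted 48 hours, with cells grown in 96-well plates and compounds tested at five concentrations. GI50 = concentration required for 50% inhibition of growth.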 Calls of active or inactive are those of the source. No stated cut-off is given here; in the data, active = GI50 up to about 1.1 µM and inactive = higher.

Key:
Experiment in all cases: growth of human tumour cells (NCI), 48 h
SNB-19 = system: SNB-19
HOP-62 = system: HOP-62
SN12C = system: SN12C
CAKI-1 = system: CAKI-1
786-0 = system: 786-0
Hs-578T = system: Hs-578T
MDA-MB-231 = system: MDA-MB-231
COLO 205 = system: COLO 205
MDA-MB-435 = system: MDA-MB-435
HT-29 = system: HT-29
NCI-H23 = system: NCI-H23
KM12 = system: KM12
HOP-92 = system: HOP-92
HL-60 = system: HL-60
HCC 2998 = system: HCC 2998
M14 = system: M14
U-251 = system: U-251
DU-145 = system: DU-145
UACC-62 = system: UACC-62
OVCAR-5 = system: OVCAR-5
UO-31 = system: UO-31
MCF7 = system: MCF7
Malme-3M = system: Malme-3M
SK-MEL-5 = system: SK-MEL-5
TK-10 = system: TK-10
LOX IMVI = system: LOX IMVI
SF-268 = system: SF-268
RPMI-8226 = system: RPMI-8226
UACC-257 = system: UACC-257
RXF 393 = system: RXF 393
SR = system: SR
OVCAR-4 = system: OVCAR-4
OVCAR-8 = system: OVCAR-8
MDA-N = system: MDA-N
SK-OV-3 = system: SK-OV-3
MOLT-4 = system: MOLT-4
A549 = system: A549
SF-295 = system: SF-295
BT-549 = system: BT-549
NCI-H522 = system: NCI-H522
SF-539 = system: SF-539
SK-MEL-2 = system: SK-MEL-2
PC-3 = system: PC-3
NCI-H226 = system: NCI-H226
EKVX = system: EKVX
SW-620 = system: SW-620
NCI/ADR-RES = system: NCI/ADR-RES
ACHN = system: ACHN
IGROV-1 = system: IGROV-1
NCI-H460 = system: NCI-H460
A498 = system: A498
SNB-75 = system: SNB-75
T47D = system: T47D
K562 = system: K562
HCT-15 = system: HCT-15
SK-MEL-28 = system: SK-MEL-28
OVCAR-3 = system: OVCAR-3
HCT-116 = system: HCT-116
CCRF-CEM = system: CCRF-CEM

c1cncc(-c2cc(-c3cc(-c4cccnc4)[nH]n3)n[nH]2)c1
GI50 (SNB-19): > 100 µM (inactive) | GI50 (HOP-62): > 100 µM (inactive) | GI50 (SN12C): > 100 µM (inactive) | GI50 (CAKI-1): > 100 µM (inactive) | GI50 (786-0): > 100 µM (inactive) | GI50 (Hs-578T): > 100 µM (inactive) | GI50 (MDA-MB-231): > 100 µM (inactive) | GI50 (COLO 205): > 100 µM (inactive) | GI50 (MDA-MB-435): > 100 µM (inactive) | GI50 (HT-29): > 100 µM (inactive) | GI50 (NCI-H23): > 100 µM (inactive) | GI50 (KM12): > 100 µM (inactive) | GI50 (HOP-92): > 100 µM (inactive) | GI50 (HL-60): > 100 µM (inactive) | GI50 (HCC 2998): > 100 µM (inactive) | GI50 (M14): > 100 µM (inactive) | GI50 (U-251): > 100 µM (inactive) | GI50 (DU-145): > 100 µM (inactive) | GI50 (UACC-62): > 100 µM (inactive) | GI50 (OVCAR-5): > 100 µM (inactive) | GI50 (UO-31): > 100 µM (inactive) | GI50 (MCF7): > 100 µM (inactive) | GI50 (Malme-3M): > 100 µM (inactive) | GI50 (SK-MEL-5): > 100 µM (inactive) | GI50 (TK-10): > 100 µM (inactive) | GI50 (LOX IMVI): > 100 µM (inactive) | GI50 (SF-268): > 100 µM (inactive) | GI50 (RPMI-8226): > 100 µM (inactive) | GI50 (UACC-257): > 100 µM (inactive) | GI50 (RXF 393): > 100 µM (inactive) | GI50 (SR): > 100 µM (inactive) | GI50 (OVCAR-4): > 100 µM (inactive) | GI50 (OVCAR-8): > 100 µM (inactive) | GI50 (MDA-N): > 100 µM (inactive) | GI50 (SK-OV-3): > 100 µM (inactive) | GI50 (MOLT-4): > 100 µM (inactive) | GI50 (A549): > 100 µM (inactive) | GI50 (SF-295): > 100 µM (inactive) | GI50 (BT-549): > 100 µM (inactive) | GI50 (NCI-H522): > 100 µM (inactive) | GI50 (SF-539): > 100 µM (inactive) | GI50 (SK-MEL-2): > 100 µM (inactive) | GI50 (PC-3): > 100 µM (inactive) | GI50 (NCI-H226): > 100 µM (inactive) | GI50 (EKVX): > 100 µM (inactive) | GI50 (SW-620): > 100 µM (inactive) | GI50 (NCI/ADR-RES): > 100 µM (inactive) | GI50 (ACHN): > 100 µM (inactive) | GI50 (IGROV-1): > 100 µM (inactive) | GI50 (NCI-H460): > 100 µM (inactive) | GI50 (A498): > 100 µM (inactive) | GI50 (SNB-75): > 100 µM (inactive) | GI50 (T47D): > 100 µM (inactive) | GI50 (K562): > 100 µM (inactive) | GI50 (HCT-15): > 100 µM | GI50 (SK-MEL-28): > 100 µM (inactive) | GI50 (OVCAR-3): > 100 µM (inactive) | GI50 (HCT-116): > 100 µM (inactive)

Cn1c(=O)c2[nH]c(CCC(=O)O)nc2n(C)c1=O
GI50 (SNB-19): > 100 µM (inactive) | GI50 (HOP-62): > 100 µM (inactive) | GI50 (SN12C): > 100 µM (inactive) | GI50 (CAKI-1): > 100 µM (inactive) | GI50 (786-0): > 100 µM (inactive) | GI50 (Hs-578T): > 100 µM (inactive) | GI50 (MDA-MB-231): > 100 µM (inactive) | GI50 (COLO 205): > 100 µM (inactive) | GI50 (MDA-MB-435): > 100 µM (inactive) | GI50 (HT-29): > 100 µM (inactive) | GI50 (NCI-H23): > 100 µM (inactive) | GI50 (KM12): > 100 µM (inactive) | GI50 (HOP-92): > 100 µM (inactive) | GI50 (HL-60): > 100 µM (inactive) | GI50 (HCC 2998): > 100 µM (inactive) | GI50 (M14): > 100 µM (inactive) | GI50 (U-251): > 100 µM (inactive) | GI50 (CCRF-CEM): > 100 µM (inactive) | GI50 (DU-145): > 100 µM (inactive) | GI50 (UACC-62): > 100 µM (inactive) | GI50 (OVCAR-5): > 100 µM (inactive) | GI50 (UO-31): > 100 µM (inactive) | GI50 (MCF7): > 100 µM (inactive) | GI50 (Malme-3M): > 100 µM (inactive) | GI50 (SK-MEL-5): > 100 µM (inactive) | GI50 (TK-10): > 100 µM (inactive) | GI50 (LOX IMVI): > 100 µM (inactive) | GI50 (SF-268): > 100 µM (inactive) | GI50 (RPMI-8226): > 100 µM (inactive) | GI50 (UACC-257): > 100 µM (inactive) | GI50 (RXF 393): > 100 µM (inactive) | GI50 (SR): > 100 µM (inactive) | GI50 (OVCAR-4): > 100 µM (inactive) | GI50 (OVCAR-8): > 100 µM (inactive) | GI50 (MDA-N): > 100 µM (inactive) | GI50 (SK-OV-3): > 100 µM (inactive) | GI50 (A549): > 100 µM (inactive) | GI50 (SF-295): > 100 µM (inactive) | GI50 (BT-549): > 100 µM (inactive) | GI50 (NCI-H522): > 100 µM (inactive) | GI50 (SF-539): > 100 µM (inactive) | GI50 (SK-MEL-2): > 100 µM (inactive) | GI50 (PC-3): > 100 µM (inactive) | GI50 (NCI-H226): > 100 µM (inactive) | GI50 (EKVX): > 100 µM (inactive) | GI50 (SW-620): > 100 µM (inactive) | GI50 (NCI/ADR-RES): > 100 µM (inactive) | GI50 (ACHN): > 100 µM (inactive) | GI50 (IGROV-1): > 100 µM (inactive) | GI50 (NCI-H460): > 100 µM (inactive) | GI50 (A498): > 100 µM (inactive) | GI50 (SNB-75): > 100 µM (inactive) | GI50 (T47D): > 100 µM (inactive) | GI50 (K562): > 100 µM (inactive) | GI50 (HCT-15): > 100 µM | GI50 (SK-MEL-28): > 100 µM (inactive) | GI50 (OVCAR-3): > 100 µM (inactive) | GI50 (HCT-116): > 100 µM (inactive)
